Here are results for 13 compounds from patent publication US9242941B2, “Alkyl, fluoroalkyl-1,4-benzodiazepinone compounds” (BRISTOL-MYERS SQUIBB COMPANY, priority 2012, dated 2016).

The test system of data set [1] is Human T-cell acute lymphoblastic leukemia cell line TALL-1. The experiment in a line: Human Tumor Xenograft Models in Mice: TALL-1. It counts as in vivo. To be noted: for Antitumor Activity in TALL-1 (LCK), QD dosing / Antitumor Activity in TALL-1 (LCK), BID dosing: Log Cell Kill, oral administration, schedule QDx10, dose unit not given; for Antitumor Activity in TALL-1 (LCK), QD dosing: dose 20 (Ex 1, 52), 12 (Ex 10), 40 (Ex 40); for antitumor activity in the Human Tumor Xenograft Models in mice: oral administration (PO) either BID and/or QD, Table 24 (TALL-1), result in words; for Antitumor Activity in TALL-1 (LCK), BID dosing: dose 20 (Ex 35, 37). In general terms: In xenograft studies the graft and the host belong to different species.

In the next data set the test system is human Notch 3. The experiment in a line: Notch-CBF1 Transactivation Assay (Notch 3). In kind it is cell-based. To be noted: read-out: Notch 3 IC50; Notch-CBF1 transactivation luciferase assay in transfected HeLa cells; some values are an average of N experiments. The text has this: (§1) Notch-CBF1 Transactivation Assay
(§2) The Notch-CBF1 (C-promoter binding factor I) cell based transactivation assay is based on the ability of the released Notch intracellular domain fragments (NICDs) to function as transcription factors in conjunction with CBF1 and other nuclear factors. Luciferase assays were used to measure the antagonism of Notch-CBF1 transcriptional activity. HeLa cervical cancer cells are transiently co-transfected with pCDNA3.1/Hygro plasmids containing truncated Notch 1, Notch 2, Notch 3, or Notch 4 receptors and a PGL3 luciferase reporter vector containing 4 copies of CBF1 binding site. The cells were then tested for Notch-CBF1 activity in the absence or presence of test compounds. HeLa cells, maintained in DMEM (high glucose with HEPES), 1× glutamine/penicillin/streptomycin and 10% Fetal Bovine serum, were transiently transfected in a T175 Flask (4.5×10^6 cells/flask) using the Monster Transfection Kit (Minis #MIR2906) according to manufacturers specifications. Table 13 denotes respective DNA quantity for the transfections.
(§3) Assay media (5 μL) containing test compounds in final concentrations ranging from 5 μM to 8.4×10^−5 μM (3 fold serial dilutions) were added to the cells and the cell plates were then incubated for 18 hours at 37° C. and 5% CO2. Control wells contained DMSO vehicle (total counts) or 0.5 μM of an in-house small molecule inhibitor (background counts). Duplicates were used for each sample. Luciferase activity was measured after a 20-minute incubation with 50 μl STEADY-GLO® luciferase reagents according to manufacturer's specifications (Promega, Cat. #E2550) and analyzed by Envision plate reader (PerkinElmer, Boston, Mass.).
(§4) The antagonist effect of compounds was expressed as 100×[1−(average sample−average background)/(average total−average background)] where sample is the luciferase activity in the presence of test compound, background is equal to the luciferase activity in the presence of the small molecule inhibitor control and the total is signal induced in DMSO wells.

Another data set deals with human Notch 1. The experiment in a line: Notch-CBF1 Transactivation Assay (Notch 1). To be noted: read-out: Notch 1 IC50; Notch-CBF1 transactivation luciferase assay in transfected HeLa cells; some values are an average of N experiments. It counts as cell-based.
Source text: as §1, §2, §3, §4

The nature of data set [2]: human metabolic stability half-life assay. To be noted: microsomes, human liver microsomes. As to the method:
Metabolic Stability Half-Life Panel
Incubation with Liver Microsomes
(Liver microsomes are a subcellular fraction often used to study metabolism.)

Setting [3] is: pH 7.4, CYP-mediated metabolic stability half life, NADPH-dependent.
Setting [4] is: pH 7.4, HLM (t1/2, min), CYP-mediated (NADPH-dependent), 0.5 μM compound, 45 min time course, some values are an average of N experiments.

Structures are written as SMILES. A value given as a limit tells only on which side of the number the result lay.

In general, IC50 refers to the point on the concentration scale where inhibition reaches its midpoint. The half-life is how long it takes for the measured level to halve. Read a low half-life as fast loss.

For `Cc1cccc2c1NC(=O)[C@@H](NC(=O)[C@H](CCC(F)(F)F)[C@H](CC1CC1)C(N)=O)N=C2c1cccc(F)c1` [Example 10, (2R,3S)-3-(Cyclopropylmethyl)-N-((3S)-5-(3-fluorophenyl)-9-methyl-2-oxo-2,3-dihydro-1H-1,4-benzodiazepin-3-yl)-2-(3,3,3-trifluoropropyl)succinamide], the “Antitumor Activity in TALL-1 (LCK), QD dosing” value (shortened to “Antitumor Activity … QD dosing”) in data set [1] was above 2.8. In addition, the “antitumor activity in the Human Tumor Xenograft Models in mice” value (from here on “antitumor activity … in mice”) in data set [1] was “showed antitumor activity”. Besides, the IC50 in the data set with human Notch 3 came out at 9.7 nM; with human Notch 1, 4 nM. The half-life at 0.5 µM is at least 30 min in data set [2] (setting [3]) and 72 min in data set [2] (setting [4]).

As for `COc1cccc2c1NC(=O)[C@@H](NC(=O)[C@H](CCC(F)(F)F)[C@H](CC1(C)CC1)C(N)=O)N=C2c1ccccc1` [Example 33, (2R,3S)—N-((3S)-9-Methoxy-2-oxo-5-phenyl-2,3-dihydro-1H-1,4-benzodiazepin-3-yl)-3-((1-methylcyclopropyl)methyl)-2-(3,3,3-trifluoropropyl)succinamide], the IC50 with human Notch 3 was 5.9 nM; in the data set with human Notch 1, 3.8 nM. The half-life at 0.5 µM was at least 30 min in data set [2] (setting [3]) and 47 min in data set [2] (setting [4]).

`NC(=O)[C@@H](CC1CC1)[C@@H](CCC(F)(F)F)C(=O)N[C@H]1N=C(c2ccccc2)c2ccc(Cl)c(Cl)c2NC1=O` [Example 34, (2R,3S)-3-(Cyclopropylmethyl)-N-((3S)-8,9-dichloro-2-oxo-5-phenyl-2,3-dihydro-1H-1,4-benzodiazepin-3-yl)-2-(3,3,3-trifluoropropyl)succinamide]: the IC50 with human Notch 3 stood at 7.4 nM; in the data set with human Notch 1, 4.7 nM. For the same compound, the half-life at 0.5 µM in data set [2] (setting [3]) is at least 30 min; in data set [2] (setting [4]), above 120 min.

Take `CCC[C@H](C(N)=O)[C@@H](CCC(F)(F)F)C(=O)N[C@H]1N=C(c2ccccc2)c2cccc(C(F)(F)F)c2NC1=O` [Example 35, (2R,3S)—N-((3S)-2-Oxo-5-phenyl-9-(trifluoromethyl)-2,3-dihydro-1H-1,4-benzodiazepin-3-yl)-3-propyl-2-(3,3,3-trifluoropropyl)succinamide]: the “Antitumor Activity in TALL-1 (LCK), BID dosing” value in data set [1] is recorded as 3.1. For the same compound, in data set [1], the “antitumor activity … in mice” value is “showed antitumor activity”. Besides, the values for the IC50 with human Notch 3 and with human Notch 1 were 12.9 nM and 16.1 nM, respectively. Moreover, the half-life at 0.5 µM is at least 30 min in data set [2] (setting [3]) and 36 min in data set [2] (setting [4]).

Regarding `NC(=O)[C@@H](CC1CC1)[C@@H](CCC(F)(F)F)C(=O)N[C@H]1N=C(c2ccccc2)c2cccc(C(F)(F)F)c2NC1=O` [Example 36, (2R,3S)-3-(Cyclopropylmethyl)-N-((3S)-2-oxo-5-phenyl-9-(trifluoromethyl)-2,3-dihydro-1H-1,4-benzodiazepin-3-yl)-2-(3,3,3-trifluoropropyl)succinamide], the half-inhibitory concentration (IC50) with human Notch 3 was 8.3 nM; in the data set on human Notch 1, 7.9 nM. Besides, the half-life at 0.5 µM in data set [2] (setting [3]) is at least 30 min; in data set [2] (setting [4]) it was above 120 min.

For `CCC[C@H](C(N)=O)[C@@H](CCC(F)(F)F)C(=O)N[C@H]1N=C(c2ccccc2)c2cccc(F)c2NC1=O` [Example 37, (2R,3S)—N-((3S)-9-Fluoro-2-oxo-5-phenyl-2,3-dihydro-1H-1,4-benzodiazepin-3-yl)-3-propyl-2-(3,3,3-trifluoropropyl)succinamide], the “Antitumor Activity in TALL-1 (LCK), BID dosing” value in data set [1] turned out to be 2.0. In addition, in data set [1], the “antitumor activity … in mice” value is reported as “showed antitumor activity”. Further, the IC50 with human Notch 3 was 11.3 nM; in the data set on human Notch 1, 4.4 nM. Moreover, the half-life at 0.5 µM in data set [2] (setting [3]) was at least 30 min; in data set [2] (setting [4]) it was 43 min.

Consider `COc1cccc2c1NC(=O)[C@@H](NC(=O)[C@H](CCC(F)(F)F)[C@H](CC1CC1)C(N)=O)N=C2c1ccccc1` [Example 38, (2R,3S)-3-(Cyclopropylmethyl)-N-((3S)-9-methoxy-2-oxo-5-phenyl-2,3-dihydro-1H-1,4-benzodiazepin-3-yl)-2-(3,3,3-trifluoropropyl)succinamide], for which the values for the IC50 in the data set on human Notch 3 and in the data set with human Notch 1 were 3.3 nM and 2.3 nM, respectively. Besides, the figures for the half-life at 0.5 µM in data set [2] (setting [3]) and in data set [2] (setting [4]) were at least 30 min and 70 min, respectively.

For the compound `CCC[C@H](C(N)=O)[C@@H](CCC(F)(F)F)C(=O)N[C@H]1N=C(c2ccccc2)c2ccc(Br)c(OC)c2NC1=O` [Example 39, (2R,3S)—N-((3S)-8-Bromo-9-methoxy-2-oxo-5-phenyl-2,3-dihydro-1H-1,4-benzodiazepin-3-yl)-3-propyl-2-(3,3,3-trifluoropropyl)succinamide], the IC50 in the data set with human Notch 3 was 12 nM; in the data set on human Notch 1, 13.4 nM. In addition, the half-life at 0.5 µM was at least 30 min in data set [2] (setting [3]) and 38 min in data set [2] (setting [4]).

As to `CCC[C@H](C(N)=O)[C@@H](CCC(F)(F)F)C(=O)N[C@H]1N=C(c2ccccc2)c2cccc(OC)c2NC1=O` [Example 40, (2R,3S)—N-((3S)-9-Methoxy-2-oxo-5-phenyl-2,3-dihydro-1H-1,4-benzodiazepin-3-yl)-3-propyl-2-(3,3,3-trifluoropropyl)succinamide], the “Antitumor Activity … QD dosing” value in data set [1] is given as 1.4. Further, the “antitumor activity … in mice” value in data set [1] is recorded as “showed antitumor activity”. Also, the values for the IC50 in the data set with human Notch 3 and with human Notch 1 were 6.9 nM and 6.8 nM, respectively. Further, the half-life at 0.5 µM was at least 30 min in data set [2] (setting [3]) and 34 min in data set [2] (setting [4]).

With `CCC[C@H](C(N)=O)[C@@H](CCC(F)(F)F)C(=O)N[C@H]1N=C(c2ccccc2)c2cccc(O)c2NC1=O` [Example 41, (2R,3S)—N-((3S)-9-Hydroxy-2-oxo-5-phenyl-2,3-dihydro-1H-1,4-benzodiazepin-3-yl)-3-propyl-2-(3,3,3-trifluoropropyl)succinamide], the 50% inhibitory concentration (IC50) was found to be 12.4 nM with human Notch 3 and 9.1 nM with human Notch 1. In addition, the half-life at 0.5 µM in data set [2] (setting [3]) is at least 30 min; in data set [2] (setting [4]) it was 45 min.

Turning to `NC(=O)[C@@H](CC1CC1)[C@@H](CCC(F)(F)F)C(=O)N[C@H]1N=C(c2ccccc2)c2cccc(Cl)c2NC1=O` [Example 42, (2R,3S)—N-((3S)-9-Chloro-2-oxo-5-phenyl-2,3-dihydro-1H-1,4-benzodiazepin-3-yl)-3-(cyclopropylmethyl)-2-(3,3,3-trifluoropropyl)succinamide], the 50% inhibitory concentration (IC50) in the data set on human Notch 3 was 3.5 nM; with human Notch 1, 1.9 nM. For the same compound, the half-life at 0.5 µM in data set [2] (setting [3]) was at least 30 min; in data set [2] (setting [4]), 87 min.

Consider `CCC[C@H](C(N)=O)[C@@H](CCC(F)(F)F)C(=O)N[C@H]1N=C(c2ccccc2)c2cccc(Cl)c2NC1=O` [Example 43, (2R,3S)—N-((3S)-9-Chloro-2-oxo-5-phenyl-2,3-dihydro-1H-1,4-benzodiazepin-3-yl)-3-propyl-2-(3,3,3-trifluoropropyl)succinamide], for which the IC50 is 4.8 nM with human Notch 3 and 3.3 nM in the data set with human Notch 1. The half-life at 0.5 µM is at least 30 min in data set [2] (setting [3]) and 30 min in data set [2] (setting [4]).

`CC(C)[C@H](N)C(=O)OCN1C(=O)[C@@H](NC(=O)[C@H](CCC(F)(F)F)[C@H](CC2CC2)C(N)=O)N=C(c2ccccc2)c2cccc(F)c21` [Example 52, ((3S)-3-(((2R)-2-((1S)-2-Amino-1-(cyclopropylmethyl)-2-oxoethyl)-5,5,5-trifluoropentanoyl)amino)-9-fluoro-2-oxo-5-phenyl-2,3-dihydro-1H-1,4-benzodiazepin-1-yl)methyl L-valinate]: in data set [1], the “Antitumor Activity … QD dosing” value was determined as 5.7 and the “antitumor activity … in mice” value is listed as “showed antitumor activity”.
